According to patent US9353120B2, “Tetraaza macrocyclic compound, preparation method thereof and use thereof” (Kyungpook National University Industry-Academic Cooperation …, priority 2009, dated 2016):
“Also recorded” adds a separate entry of the source. Like-named read-outs stand apart in the source and are kept apart here.

Columns and labels:
[1] = buffer
Protocol: Acid decomplexation studies were performed under pseudo first-order conditions with the same concentration of 3 mmol in 5 M HCl at 90° C. Changes in the absorption maxima with time were monitored using a Shimadzu UV-Vis spectrophotometer (UV-1650PC) in thermostated cells. The decreasing absorbance at the λmax of each spectrum (Cu-PCB-TE2A: 655 nm, Cu-PCB-DO2A: 596 nm) was used to monitor the progress of the decomplexation reaction (FIGS. 24-25). Half-lives were calculated from the slopes of linear ln(absorbance) vs. time plots. Each experiment was repeated two to three times and mean values of half-lives are reported.

[2] = Electrochemical studies (cyclic voltammetry); format: physicochemical; conditions: pH 7.0, scan rate 100 mV/s; for reversibility of redox reaction: cyclic voltammogram
Protocol: Cyclic voltammetry was conducted using Biologic model SP-150 with three-electrode configuration. The system consisted of a glassy carbon (diameter=3 mm) as a working electrode, an Ag/AgCl (sat. KCl) reference electrode, and a Pt wire counter electrode. Samples were run in 0.1 M aqueous […] adjusted to pH 7.0 with glacial […] at scan rate 100 mV/s. The solutions were deoxygenated for 30 minutes with argon (Ar) prior to use and kept under Ar atmosphere during measurement.

in vivo = conditions: female, nude, mouse, iv, 16 uCi, total radioactivity, mean uptake in the tumor
[3] = in vivo
Protocol: (§1) The animals were sacrificed at 4 hours and 24 hours post-injection. Organs and tissues of interest were removed and weighed.

U87MG tumors = assay: MicroPET imaging; format: in vivo, female nude mice; conditions: U87MG tumor bearing nude mouse, 1 hour post-injection, 231 μCi
Protocol: PET scans and image analysis were performed using a microPET R4 rodent model scanner. […] At 1 hour after the injection, the mice were anesthetized with 1-2% isoflurane, positioned porne, and imaged. The images were reconstructed by the 2-dimensional ordered-subsets expectation maximum (OSEM) algorithm. No correction was necessary for attenuation or scatter correction.

[4] = Kinetic inertness via acid decomplexation (radio-TLC); format: physicochemical; conditions: 5 M and 10 M HCl, 90° C., radio-TLC at 6, 30 and 60 minutes
Protocol: Acid decomplexation of ^64Cu-PCB-TE2A was tested by adding 20 μL of ^64Cu-PCB-TE2A (1-2 mM, 52 μCi) to 100 μL of 5 M and 10 M HCl. The solution was heated at 90° C., and samples were analyzed by radio-TLC at 6, 30 and 60 minutes post-addition to 5 M and 10 M HCl (FIGS. 10-15).

[5] = Rat biodistribution of 64Cu complexes
Protocol: as §1

In vitro serum stability = format: in vitro ADME, bovine; conditions: FBS, 37° C., radio-TLC up to 24 hours, then 50° C. for 1 hour
Protocol: In vitro serum stability of ^64Cu-PCB-TE2A was tested by adding 20 μL of ^64Cu-PCB-TE2A (1-2 mM, 50 μCi) to 0.5 mL of fetal bovine serum (FBS). The solution was incubated at 37° C., and samples were analyzed by radio-TLC at 10, 30 and 60 minutes and at 2, 4, 10 and 24 hours post-addition to FBS (FIGS. 16-22). After 24 hours, the solution was incubated at 50° C. for 1 hour and once again samples were analyzed by radio-TLC (FIG. 23).

[6] = Kidney, 24 hours post-injection
[7] = Muscle, 24 hours post-injection
[8] = Spleen, 24 hours post-injection

Cu-PCB-TE2A
Half-life for acid decomplexation, 5M HCl, 90° C. [1]: 231(2)h | reversibility of redox reaction [2]: quasi-reversible redox reaction; also recorded: qitasi-rev | Ered(V) vs Ag/AgCl (reduction potential) [2]: −0.66 V

O=C([O-])CN1CCN2CCCN(CC1)CCN(CC(=O)[O-])CC2.[Cu+2] [Cu-PCB-DO2A]
reversibility of redox reaction [2]: irreversible redox reaction | reversibility of redox reaction ([2]; listed as CU-PCB-DO2A): irrev | Ered(V) vs Ag/AgCl (reduction potential) [2]: −0.69 V

N=C(N)NCCC[C@@H]1NC(=O)[C@H](CCCCNC(=S)Nc2ccc(CC3CN4CCCN(CC(=O)O)CCN(CCCN(CC(=O)O)CC4)C3)cc2)NC(=O)[C@@H](Cc2ccc(O)cc2)NC(=O)[C@H](CC(=O)O)NC(=O)CNC1=O (stereo partly shown) [metal not drawn]
tissue uptake at 1 h (in vivo): 4.76 %ID/g

O=C(O)CN1CCCN2CCCN(CCCN(CC(=O)O)CC2)CC1 [PCB-TE2A, 4,11-bis(carboxymethyl)-1,4,8,11-tetraazabicyclo[6.6.3]heptadecane]
Blood (rat biodistribution, cross-bridged and non-cross-bridged chelators) ([3]; Sprague-Dawley, 24 h): 0.012±0.004 % ID/organ | Kidney (rat biodistribution, cross-bridged and non-cross-bridged chelators) ([3]; Sprague-Dawley, 24 h): 0.064±0.009 % ID/organ | Liver (rat biodistribution, cross-bridged and non-cross-bridged chelators) ([3]; Sprague-Dawley, 24 h): 0.142±0.004 % ID/organ

^64Cu-PCB-TE2A-c(RGDyK)
radiation uptake in the tumors (microPET) (U87MG tumors): very high in the tumors as compared to other organs

O=C([O-])CN1CCCN2CCCN(CCCN(CC(=O)[O-])CC2)CC1.[64Cu+2] [^64Cu-PCB-TE2A]
kinetic inertness towards acid decomplexation [4]: unusually high kinetic inertness towards acid decomplexation | % ID/g ([5]; Blood, 4 hours post-injection): 0.013 ± 0.003 % ID/g | % ID/organ ([5]; Blood, 4 hours post-injection): 0.192 ± 0.048 % ID/organ | % ID/g ([5]; Blood, 24 hours post-injection): 0.006 ± 0.001 % ID/g | % ID/organ ([5]; Blood, 24 hours post-injection): 0.108 ± 0.029 % ID/organ | % ID/g ([5]; Bone, 4 hours post-injection): 0.030 ± 0.004 % ID/g | % ID/organ ([5]; Bone, 4 hours post-injection): 0.656 ± 0.110 % ID/organ | % ID/g ([5]; Bone, 24 hours post-injection): 0.020 ± 0.005 % ID/g | % ID/organ ([5]; Bone, 24 hours post-injection): 0.569 ± 0.181 % ID/organ | % ID/g ([5]; Fat, 4 hours post-injection): 0.060 ± 0.013 % ID/g | % ID/organ ([5]; Fat, 4 hours post-injection): 1.686 ± 0.322 % ID/organ | % ID/g ([5]; Fat, 24 hours post-injection): 0.036 ± 0.005 % ID/g | % ID/organ ([5]; Fat, 24 hours post-injection): 1.328 ± 0.311 % ID/organ | % ID/g ([5]; Heart, 4 hours post-injection): 0.015 ± 0.001 % ID/g | % ID/organ ([5]; Heart, 4 hours post-injection): 0.011 ± 0.000 % ID/organ | % ID/g ([5]; Heart, 24 hours post-injection): 0.007 ± 0.002 % ID/g | % ID/organ ([5]; Heart, 24 hours post-injection): 0.006 ± 0.001 % ID/organ | % ID/g ([5]; Kidney, 4 hours post-injection): 0.421 ± 0.019 % ID/g | % ID/organ ([5]; Kidney, 4 hours post-injection): 0.794 ± 0.056 % ID/organ | % ID/g [5, 6]: 0.049 ± 0.007 % ID/g | % ID/organ [5, 6]: 0.112 ± 0.011 % ID/organ | % ID/g ([5]; Liver, 4 hours post-injection): 0.213 ± 0.032 % ID/g | % ID/organ ([5]; Liver, 4 hours post-injection): 1.679 ± 0.241 % ID/organ | % ID/g ([5]; Liver, 24 hours post-injection): 0.015 ± 0.001 % ID/g | % ID/organ ([5]; Liver, 24 hours post-injection): 0.122 ± 0.013 % ID/organ | % ID/g ([5]; Lungs, 4 hours post-injection): 0.022 ± 0.003 % ID/g | % ID/organ ([5]; Lungs, 4 hours post-injection): 0.022 ± 0.003 % ID/organ | % ID/g ([5]; Lungs, 24 hours post-injection): 0.013 ± 0.002 % ID/g | % ID/organ ([5]; Lungs, 24 hours post-injection): 0.015 ± 0.003 % ID/organ | % ID/g ([5]; Muscle, 4 hours post-injection): 0.033 ± 0.006 % ID/g | % ID/organ ([5]; Muscle, 4 hours post-injection): 2.743 ± 0.525 % ID/organ | % ID/g [5, 7]: 0.018 ± 0.006 % ID/g | % ID/organ [5, 7]: 1.987 ± 0.703 % ID/organ | % ID/g ([5]; Spleen, 4 hours post-injection): 0.025 ± 0.006 % ID/g | % ID/organ ([5]; Spleen, 4 hours post-injection): 0.013 ± 0.004 % ID/organ | % ID/g [5, 8]: 0.015 ± 0.009 % ID/g | % ID/organ [5, 8]: 0.009 ± 0.004 % ID/organ | % ID/g ([5]; Tail, 4 hours post-injection): 0.046 ± 0.039 % ID/g | % ID/organ ([5]; Tail, 4 hours post-injection): 0.252 ± 0.213 % ID/organ | % ID/g ([5]; Tail, 24 hours post-injection): 0.039 ± 0.014 % ID/g | % ID/organ ([5]; Tail, 24 hours post-injection): 0.276 ± 0.115 % ID/organ | clearance from the blood, liver and kidneys ([5]; words): lowest amount of ^64Cu remaining in the blood and these tissues | in vitro serum stability (In vitro serum stability): intact in the FBS for 24 hours without degradation

O=C([O-])CN1CCN2CCCN(CC1)CCN(CC(=O)[O-])CC2.[64Cu+2] [^64Cu-PCB-DO2A]
clearance from the blood, liver and kidneys ([3]; rat): quickly cleared
